Experimental data published in patent US8450266B2 (Ipsen Pharma S.A.S., priority 2008, dated 2013).
Where a SMILES comes first, the peptide text is derived from it. [ ]: non-standard residue; d: D form. The star is where a group is joined. Ac6c = NC1(C(=O)O)CCCCC1; X1 = CCCN1C(=O)CC(*)C1=O

Tests used:
[1] = Rat plasma half-life assay (LC-MS); assay type: in vitro ADME; settings: incubated at 37° C., read-out: Rat Plasma T½ (converted)
Method: (§1) B. Human and Rat Plasma Half-Life Assay
(§2) 50 μl, was removed at various times, like at 0, 1, 2, 3, 4, 8, 24, 32, 48, 56, 72 hours, mixed with 5 μL formic acid and 150 μL acetonitrile in a microcentrifuge tube, vertexed, and centrifuged for 10 minutes at 10K rpm. The supernatant was transferred to an injection vial and analyzed by LC-MS. The LC-MS system consisted of an API4000 mass spectrometer with an ESI probe. Positive ion mode and full scan detection were used. HPLC separation was carried out on a Luna 3μ C8 (2), 2×30 mm column with a gradient from 90% A to 90% B in 10 minutes at a flow rate of 0.3 ml/min. Buffer A was 1% formic acid in water and buffer B was 1% formic acid acetonitrile.

[2] = Human plasma half-life assay (LC-MS); assay type: in vitro ADME; settings: incubated at 37° C., read-out: Human Plasma T½ (converted)
Method: as §1, §2

Row | Compound | half-life at 0.1 mg/ml [1] [h] | half-life at 0.1 mg/ml [2] [h] | half-life at 0.1 mg/mL [1] [h] | half-life at 0.1 mg/mL [2] [h]
1 | CC[C@H](C)[C@H](NC(=O)[C@H](CO)NC(=O)[C@H](Cc1ccc(O)cc1)NC(=O)[C@H](CC(=O)O)NC(=O)[C@H](CO)NC(=O)C1(NC(C)=O)CCCCC1)C(=O)N[C@@H](C)C(=O)N[C@@H](CCSC)C(=O)N[C@@H](CC(=O)O)C(=O)N[C@@H](CCCCN)C(=O)N[C@H](C(=O)N[C@@H](Cc1c[nH]cn1)C(=O)N[C@@H](CCC(N)=O)C(=O)N[C@@H](CCC(N)=O)C(=O)N[C@@H](CC(=O)O)C(=O)N[C@@H](Cc1ccccc1)C(=O)N[C@H](C(=O)N[C@@H](CC(N)=O)C(=O)N[C@@H](Cc1c[nH]c2ccccc12)C(=O)N[C@@H](CC(C)C)C(=O)N[C@@H](CC(C)C)C(=O)N[C@@H](C)C(=O)N[C@@H](CCC(N)=O)C(=O)N[C@@H](CCCCN)C(=O)NCC(=O)N[C@@H](CCCCN)C(=O)N[C@@H](CCCCN)C(=O)N[C@@H](CC(N)=O)C(=O)N[C@@H](CC(=O)O)C(=O)N[C@@H](Cc1c[nH]c2ccccc12)C(=O)N[C@@H](CCCCN)C(=O)N[C@@H](Cc1c[nH]cn1)C(=O)N[C@@H](CC(N)=O)C(=O)N[C@H](C(=O)N[C@H](C(=O)N[C@@H](CCC(N)=O)C(=O)O)[C@@H](C)O)[C@@H](C)CC)C(C)C)[C@@H](C)CC [Example 1, (Ac-A6c^7)hGIP(7-42)-OH] | 11 | > 72 |  | 
2 | CCCN1C(=O)CC(SC[C@H](NC(=O)[C@H](CC(N)=O)NC(=O)[C@H](Cc2c[nH]cn2)NC(=O)[C@H](CCCCN)NC(=O)[C@H](Cc2c[nH]c3ccccc23)NC(=O)[C@H](CC(=O)O)NC(=O)[C@H](CC(N)=O)NC(=O)[C@H](CCCCN)NC(=O)[C@H](CCCCN)NC(=O)CNC(=O)[C@H](CCCCN)NC(=O)[C@H](CCC(N)=O)NC(=O)[C@H](C)NC(=O)[C@H](CC(C)C)NC(=O)[C@H](CC(C)C)NC(=O)[C@H](Cc2c[nH]c3ccccc23)NC(=O)[C@H](CC(N)=O)NC(=O)[C@@H](NC(=O)[C@H](Cc2ccccc2)NC(=O)[C@H](CC(=O)O)NC(=O)[C@H](CCC(N)=O)NC(=O)[C@H](CCC(N)=O)NC(=O)[C@H](Cc2c[nH]cn2)NC(=O)[C@@H](NC(=O)[C@H](CCCCN)NC(=O)[C@H](CC(=O)O)NC(=O)[C@H](CCSC)NC(=O)[C@H](C)NC(=O)[C@@H](NC(=O)[C@H](CO)NC(=O)[C@H](Cc2ccc(O)cc2)NC(=O)[C@H](CC(=O)O)NC(=O)[C@H](CO)NC(=O)C2(NC(C)=O)CCCCC2)[C@@H](C)CC)[C@@H](C)CC)C(C)C)C(=O)N[C@H](C(=O)N[C@@H](CCC(N)=O)C(=O)O)[C@@H](C)O)C1=O (some centres unmarked) [Example 2, [Ac-A6c^7, Cys(Psu)^40]hGIP(7-42)-OH] (Ac-[Ac6c]SDYSIAMDKIHQQDFVNWLLAQKGKKNDWKHNC(X1)TQ-OH) |  |  | 7.2 | 13.7
3 | CCCN1C(=O)CC(SC[C@H](NC(=O)[C@H](Cc2c[nH]cn2)NC(=O)[C@H](CCCCN)NC(=O)[C@H](Cc2c[nH]c3ccccc23)NC(=O)[C@H](CC(=O)O)NC(=O)[C@H](CC(N)=O)NC(=O)[C@H](CCCCN)NC(=O)[C@H](CCCCN)NC(=O)CNC(=O)[C@H](CCCCN)NC(=O)[C@H](CCC(N)=O)NC(=O)[C@H](C)NC(=O)[C@H](CC(C)C)NC(=O)[C@H](CC(C)C)NC(=O)[C@H](Cc2c[nH]c3ccccc23)NC(=O)[C@H](CC(N)=O)NC(=O)[C@@H](NC(=O)[C@H](Cc2ccccc2)NC(=O)[C@H](CC(=O)O)NC(=O)[C@H](CCC(N)=O)NC(=O)[C@H](CCC(N)=O)NC(=O)[C@H](Cc2c[nH]cn2)NC(=O)[C@@H](NC(=O)[C@H](CCCCN)NC(=O)[C@H](CC(=O)O)NC(=O)[C@H](CCSC)NC(=O)[C@H](C)NC(=O)[C@@H](NC(=O)[C@H](CO)NC(=O)[C@H](Cc2ccc(O)cc2)NC(=O)[C@H](CC(=O)O)NC(=O)[C@H](CO)NC(=O)C2(NC(C)=O)CCCCC2)[C@@H](C)CC)[C@@H](C)CC)C(C)C)C(=O)N[C@H](C(=O)N[C@H](C(=O)N[C@@H](CCC(N)=O)C(=O)O)[C@@H](C)O)[C@@H](C)CC)C1=O (some centres unmarked) [Example 3, [Ac-A6c^7, Cys(Psu)^39]hGIP(7-42)-OH] (Ac-[Ac6c]SDYSIAMDKIHQQDFVNWLLAQKGKKNDWKHC(X1)ITQ-OH) |  |  | 5.6 | 16.4
4 | CCCN1C(=O)CC(SC[C@H](NC(=O)[C@H](CCCCN)NC(=O)[C@H](Cc2c[nH]c3ccccc23)NC(=O)[C@H](CC(=O)O)NC(=O)[C@H](CC(N)=O)NC(=O)[C@H](CCCCN)NC(=O)[C@H](CCCCN)NC(=O)CNC(=O)[C@H](CCCCN)NC(=O)[C@H](CCC(N)=O)NC(=O)[C@H](C)NC(=O)[C@H](CC(C)C)NC(=O)[C@H](CC(C)C)NC(=O)[C@H](Cc2c[nH]c3ccccc23)NC(=O)[C@H](CC(N)=O)NC(=O)[C@@H](NC(=O)[C@H](Cc2ccccc2)NC(=O)[C@H](CC(=O)O)NC(=O)[C@H](CCC(N)=O)NC(=O)[C@H](CCC(N)=O)NC(=O)[C@H](Cc2c[nH]cn2)NC(=O)[C@@H](NC(=O)[C@H](CCCCN)NC(=O)[C@H](CC(=O)O)NC(=O)[C@H](CCSC)NC(=O)[C@H](C)NC(=O)[C@@H](NC(=O)[C@H](CO)NC(=O)[C@H](Cc2ccc(O)cc2)NC(=O)[C@H](CC(=O)O)NC(=O)[C@H](CO)NC(=O)C2(NC(C)=O)CCCCC2)[C@@H](C)CC)[C@@H](C)CC)C(C)C)C(=O)N[C@@H](CC(N)=O)C(=O)N[C@H](C(=O)N[C@H](C(=O)N[C@@H](CCC(N)=O)C(=O)O)[C@@H](C)O)[C@@H](C)CC)C1=O (some centres unmarked) [Example 4, [Ac-A6c^7, Cys(Psu)^38]hGIP(7-42)-OH] (Ac-[Ac6c]SDYSIAMDKIHQQDFVNWLLAQKGKKNDWKC(X1)NITQ-OH) |  |  | 6 | 10
5 | CCCN1C(=O)CC(SC[C@H](NC(=O)[C@H](CC(=O)O)NC(=O)[C@H](CC(N)=O)NC(=O)[C@H](CCCCN)NC(=O)[C@H](CCCCN)NC(=O)CNC(=O)[C@H](CCCCN)NC(=O)[C@H](CCC(N)=O)NC(=O)[C@H](C)NC(=O)[C@H](CC(C)C)NC(=O)[C@H](CC(C)C)NC(=O)[C@H](Cc2c[nH]c3ccccc23)NC(=O)[C@H](CC(N)=O)NC(=O)[C@@H](NC(=O)[C@H](Cc2ccccc2)NC(=O)[C@H](CC(=O)O)NC(=O)[C@H](CCC(N)=O)NC(=O)[C@H](CCC(N)=O)NC(=O)[C@H](Cc2c[nH]cn2)NC(=O)[C@@H](NC(=O)[C@H](CCCCN)NC(=O)[C@H](CC(=O)O)NC(=O)[C@H](CCSC)NC(=O)[C@H](C)NC(=O)[C@@H](NC(=O)[C@H](CO)NC(=O)[C@H](Cc2ccc(O)cc2)NC(=O)[C@H](CC(=O)O)NC(=O)[C@H](CO)NC(=O)C2(NC(C)=O)CCCCC2)[C@@H](C)CC)[C@@H](C)CC)C(C)C)C(=O)N[C@@H](CCCCN)C(=O)N[C@@H](Cc2c[nH]cn2)C(=O)N[C@@H](CC(N)=O)C(=O)N[C@H](C(=O)N[C@H](C(=O)N[C@@H](CCC(N)=O)C(=O)O)[C@@H](C)O)[C@@H](C)CC)C1=O (some centres unmarked) [Example 5, [Ac-A6c^7, Cys(Psu)^36]hGIP(7-42)-OH] (Ac-[Ac6c]SDYSIAMDKIHQQDFVNWLLAQKGKKNDC(X1)KHNITQ-OH) |  |  | 8.5 | 7.8
6 | CCCN1C(=O)CC(SC[C@H](NC(=O)[C@H](CC(N)=O)NC(=O)[C@H](CCCCN)NC(=O)[C@H](CCCCN)NC(=O)CNC(=O)[C@H](CCCCN)NC(=O)[C@H](CCC(N)=O)NC(=O)[C@H](C)NC(=O)[C@H](CC(C)C)NC(=O)[C@H](CC(C)C)NC(=O)[C@H](Cc2c[nH]c3ccccc23)NC(=O)[C@H](CC(N)=O)NC(=O)[C@@H](NC(=O)[C@H](Cc2ccccc2)NC(=O)[C@H](CC(=O)O)NC(=O)[C@H](CCC(N)=O)NC(=O)[C@H](CCC(N)=O)NC(=O)[C@H](Cc2c[nH]cn2)NC(=O)[C@@H](NC(=O)[C@H](CCCCN)NC(=O)[C@H](CC(=O)O)NC(=O)[C@H](CCSC)NC(=O)[C@H](C)NC(=O)[C@@H](NC(=O)[C@H](CO)NC(=O)[C@H](Cc2ccc(O)cc2)NC(=O)[C@H](CC(=O)O)NC(=O)[C@H](CO)NC(=O)C2(NC(C)=O)CCCCC2)[C@@H](C)CC)[C@@H](C)CC)C(C)C)C(=O)N[C@@H](Cc2c[nH]c3ccccc23)C(=O)N[C@@H](CCCCN)C(=O)N[C@@H](Cc2c[nH]cn2)C(=O)N[C@@H](CC(N)=O)C(=O)N[C@H](C(=O)N[C@H](C(=O)N[C@@H](CCC(N)=O)C(=O)O)[C@@H](C)O)[C@@H](C)CC)C1=O (some centres unmarked) [Example 6, [Ac-A6c^7, Cys(Psu)^35]hGIP(7-42)-OH] (Ac-[Ac6c]SDYSIAMDKIHQQDFVNWLLAQKGKKNC(X1)WKHNITQ-OH) |  |  | 3.2 | 8
7 | CCCN1C(=O)CC(SC[C@H](NC(=O)[C@H](CCCCN)NC(=O)[C@H](CCCCN)NC(=O)CNC(=O)[C@H](CCCCN)NC(=O)[C@H](CCC(N)=O)NC(=O)[C@H](C)NC(=O)[C@H](CC(C)C)NC(=O)[C@H](CC(C)C)NC(=O)[C@H](Cc2c[nH]c3ccccc23)NC(=O)[C@H](CC(N)=O)NC(=O)[C@@H](NC(=O)[C@H](Cc2ccccc2)NC(=O)[C@H](CC(=O)O)NC(=O)[C@H](CCC(N)=O)NC(=O)[C@H](CCC(N)=O)NC(=O)[C@H](Cc2c[nH]cn2)NC(=O)[C@@H](NC(=O)[C@H](CCCCN)NC(=O)[C@H](CC(=O)O)NC(=O)[C@H](CCSC)NC(=O)[C@H](C)NC(=O)[C@@H](NC(=O)[C@H](CO)NC(=O)[C@H](Cc2ccc(O)cc2)NC(=O)[C@H](CC(=O)O)NC(=O)[C@H](CO)NC(=O)C2(NC(C)=O)CCCCC2)[C@@H](C)CC)[C@@H](C)CC)C(C)C)C(=O)N[C@@H](CC(=O)O)C(=O)N[C@@H](Cc2c[nH]c3ccccc23)C(=O)N[C@@H](CCCCN)C(=O)N[C@@H](Cc2c[nH]cn2)C(=O)N[C@@H](CC(N)=O)C(=O)N[C@H](C(=O)N[C@H](C(=O)N[C@@H](CCC(N)=O)C(=O)O)[C@@H](C)O)[C@@H](C)CC)C1=O (some centres unmarked) [Example 7, [Ac-A6c^7, Cys(Psu)^34]hGIP(7-42)-OH] (Ac-[Ac6c]SDYSIAMDKIHQQDFVNWLLAQKGKKC(X1)DWKHNITQ-OH) |  |  | 1.6 | 7.9
